Inhibition data for 3 molecules are collected here from ChEMBL document CHEMBL1141750, “Phenanthroindolizidine alkaloids from the stems of Ficus septica” (2005).

One assay has as its system NUGC. Briefly: Cytotoxicity against human NUGC at 10 uM after 3 days by MTS reduction assay. Conditions: 72 h. The class given is functional.
Assay [1] in a line: Cytotoxicity against human HONE1 at 10 uM after 3 days by MTS reduction assay. The class given is functional. Particulars: HONE1, 72 h.

With `COc1cc2c3c(c4ccc(OC)c(OC)c4c2cc1OC)C[N@@+]1([O-])CCC[C@@H]1C3`, the inhibition at 10 µM in the assay on NUGC was determined as 94%; in assay [1] it was 92%.
On the same counts, the results for `COc1cc2c3c(c4ccc(OC)c(OC)c4c2cc1OC)C[C@H]1CCC[N@+]1([O-])C3` are 93% and 87%.
In the case of `COc1cc2c3c(c4cc(OC)c(OC)cc4c2cc1OC)CN1CCC[C@@H]1C3` [TYLOPHORINE], the values for the inhibition at 10 µM (with NUGC; in assay [1]) were 85% and 80%, respectively.
